Laboratory results: patent US10590056B2, “ERR modulators and uses thereof” (CITY OF HOPE, priority 2017, dated 2020)

Tests used:
Human ERα = target: T1, Human ERα (Homo sapiens, UniProt P03372); assay: Full-length ERα, estrogen receptor responsive reporter assay in CV-1 cells; assay type: cell-based; conditions: selectivity evaluation
T1 construct: Human ERα and ERβ were examined as full-length proteins using an estrogen receptor responsive reporter construct; expressed in transfected cells; host or cells: CV-1 cells, cytomegalovirus-driven expression vectors
T1 sequence (P03372 1-595): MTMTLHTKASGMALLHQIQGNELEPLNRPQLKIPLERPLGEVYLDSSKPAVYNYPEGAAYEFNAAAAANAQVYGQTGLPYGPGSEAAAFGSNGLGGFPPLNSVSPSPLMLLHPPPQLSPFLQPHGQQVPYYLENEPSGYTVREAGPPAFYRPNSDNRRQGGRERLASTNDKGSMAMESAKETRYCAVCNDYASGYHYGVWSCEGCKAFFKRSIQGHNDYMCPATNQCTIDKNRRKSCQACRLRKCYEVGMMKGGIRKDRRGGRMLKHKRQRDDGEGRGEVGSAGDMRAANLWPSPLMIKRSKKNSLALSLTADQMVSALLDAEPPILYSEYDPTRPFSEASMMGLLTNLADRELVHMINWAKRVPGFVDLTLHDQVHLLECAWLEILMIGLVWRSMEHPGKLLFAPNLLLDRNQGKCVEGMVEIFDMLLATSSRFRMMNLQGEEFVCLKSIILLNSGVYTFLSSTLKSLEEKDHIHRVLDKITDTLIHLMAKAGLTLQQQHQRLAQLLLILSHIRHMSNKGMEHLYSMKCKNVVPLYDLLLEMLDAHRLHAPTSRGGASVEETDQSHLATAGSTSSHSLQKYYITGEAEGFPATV
Protocol: Cell based transactivation assays were performed in CV-1 cells as described.^49 ERR activity was assayed with a GAL4 reporter construct and fusion proteins containing the ligand binding domains of human ERRα, human ERRβ and mouse ERRγ linked to the DNA binding domain of yeast GAL4. Human ERα and ERβ were examined as full-length proteins using an estrogen receptor responsive reporter construct. Reporter constructs (300 ng/10^5 cells) and cytomegalovirus-driven expression vectors (20-50 ng/10^5 cells) were added as indicated along with CMX-β-gal (500 ng/10^5 cells) as an internal control. Cells were transiently transfected by Lipofectamine as described.^56 Cells were incubated with DNA complexed liposomes for 2 hours and subsequently treated for approximately 45 hr with phenol red free DMEM FBS containing the indicated compounds. After exposure to ligand, the cells were harvested and assayed for luciferase and β-galactosidase activity. All points were assayed in triplicate and varied by less than 15%. Each experiment was repeated three or more times with similar results. Fold activation is reported.

[1] = tested on: ERRγ target gene SHP (NR0B2); assay: Endogenous SHP (NR0B2) expression by real-time PCR in 293 HEK cells expressing ERRγ via adenovirus; assay type: cell-based, human; conditions: 293HEK over-expressing ERRγ, 100 nM, 48 hours
Protocol: (§1) FIGS. 7A-7C. […] FIG. 7A. 293 HEK cells expressing either GFP or ERRγ via adenoviral transduction were treated with either vehicle (DMSO) or 100 nM DY40 for 48 hours. Expression of endogenous SHP (NR0B2) was quantitated by real-time PCR. Values are normalized to β-actin transcript and reported relative to GFP untreated levels (=1.0). Data represent mean±S.E.M. for 3 independent trials. FIG. 7B. C2C12 myotubes were treated with either vehicle or 100 nM DY40 for 48 hours. Expression of endogenous SHP was measured by quantitative real-time PCR. Values are normalized to 36b4 (Rp1p0) transcript and reported relative to expression in DMSO treated cells (=1.0). Data represent mean±S.E.M. for 3 independent trials. *, P<0.05 DMSO versus DY40 treated values. FIG. 7C. C2C12 myotubes were treated with either vehicle or 100 nM DY40 for 48 hours. Oxidation of ^3H-palmitate-BSA was measured as described in Methods. Values are normalized to total cellular protein and reported relative to expression in DMSO treated cells (=1.0). […]
(§2) Validation of DY40 effects on endogenous ERRγ target gene expression and metabolism in cell based models. […] We also evaluated the effects of the compound in C2C12 myotubes that have significant endogenous ERRγ expression. […]
(§3) Experimental transcript levels were normalized to 36B4 ribosomal RNA analyzed in separate reactions. […]

ERRγ target gene SHP = assay: Endogenous SHP transcript by real-time PCR in C2C12 myotubes; assay type: cell-based, mouse; conditions: 100 nM, 48 hours, vs DMSO
Protocol: as §1, §2, §3

C2C12 myotubes = assay: Fatty acid oxidation assay (3H-palmitate-BSA) in C2C12 myotubes; assay type: cell-based; conditions: 100 nM, 48 hours, compared to vehicle-treated controls
Protocol: as §1, with “Methods.” for “Methods. Values are normalized to total cellular protein and reported relative to expression in DMSO treated cells (=1.0).”
The analysis of fatty acid oxidation rates in cells was performed as previously described.^57 Fatty acid ^3H-[9,10]-palimitic acid was complexed to fatty acid-free BSA and this complex was added to 30 uM unlabeled palmitate. […] The substrate was removed and radiolabeled aqueous metabolites (^3H2O) released to the media were measured by scintillation counting. The calculated rates were normalized to total cellular protein.

CC(=O)Oc1ccc(/C(=C(/c2ccccc2)C(C)C)c2ccc(OCCN(C)C)cc2)cc1 [Compound 4a, (E)-4-{1-[4-(2-dimethylamino-ethoxy)-phenyl]-3-methyl-2-phenyl-but-1-enyl}-phenyl acetate]
ERα antagonist activity, in words (Human ERα): remains an antagonist potency of ERα | ERRγ mediated induction of SHP transcript [1]: completely blocked | repression of endogenous SHP transcript levels (ERRγ target gene SHP): ~60% | change in palmitate oxidation rates (C2C12 myotubes): −42%
